What all share (type): cell-based
One assay addresses T1, human GIP R (Homo sapiens, UniProt P48546).
T1 construct: expressed in transfected cells
T1 sequence (P48546 22-466): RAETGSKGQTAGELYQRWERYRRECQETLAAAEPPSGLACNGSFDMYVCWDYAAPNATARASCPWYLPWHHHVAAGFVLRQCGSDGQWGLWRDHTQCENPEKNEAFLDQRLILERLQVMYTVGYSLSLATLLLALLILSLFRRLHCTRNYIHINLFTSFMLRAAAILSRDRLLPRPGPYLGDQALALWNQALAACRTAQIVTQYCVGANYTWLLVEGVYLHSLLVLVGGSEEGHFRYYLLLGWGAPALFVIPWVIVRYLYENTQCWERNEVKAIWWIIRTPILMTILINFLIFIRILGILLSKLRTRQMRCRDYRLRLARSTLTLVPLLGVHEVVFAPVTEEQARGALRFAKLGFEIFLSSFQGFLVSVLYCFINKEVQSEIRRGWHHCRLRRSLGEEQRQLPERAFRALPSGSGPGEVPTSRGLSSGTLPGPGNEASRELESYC
Description: cAMP induction in HEK293 cells expressing human GIP R (AlphaScreen cAMP kit). (In general: Alpha assays give light when donor and acceptor beads are brought close together.)

For a further assay, the target named is T2, human GLP-1 R (Homo sapiens, UniProt P43220).
T2 construct: expressed in transfected cells
T2 sequence (P43220 24-463): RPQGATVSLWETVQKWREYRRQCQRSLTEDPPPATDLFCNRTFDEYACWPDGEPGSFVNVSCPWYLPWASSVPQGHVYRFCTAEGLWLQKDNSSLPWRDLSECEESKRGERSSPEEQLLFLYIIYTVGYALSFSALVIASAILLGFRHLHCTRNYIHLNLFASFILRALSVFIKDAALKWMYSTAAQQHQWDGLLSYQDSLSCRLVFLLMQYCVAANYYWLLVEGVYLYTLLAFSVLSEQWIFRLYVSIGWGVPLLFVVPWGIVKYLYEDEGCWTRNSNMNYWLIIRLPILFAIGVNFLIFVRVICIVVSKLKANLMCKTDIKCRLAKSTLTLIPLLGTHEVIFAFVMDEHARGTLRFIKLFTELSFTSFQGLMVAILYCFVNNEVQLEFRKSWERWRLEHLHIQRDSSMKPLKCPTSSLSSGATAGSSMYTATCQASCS
Description: cAMP induction in HEK293 cells expressing human GLP-1 R (AlphaScreen cAMP kit).

Another assay addresses T3, human GCG R (Homo sapiens, UniProt P47871).
T3 construct: expressed in transfected cells
Description: cAMP induction in HEK293 cells expressing human GCG R (AlphaScreen cAMP kit).

The mark [1] stands for this setting: GIP R (EC50 in nM), Table 2, average EC50, cAMP.
Setting [2] is: Table 2, average EC50, cAMP, HEK293 cells expressing human GLP-1 R, read-out: GLP1 R (EC50 in nM).
[3] abbreviates: Table 2b (most comprehensive data), average EC50, cAMP, read-out: GIP R (EC50 in nM).
The mark [4] stands for this setting: Table 2b (most comprehensive data), average EC50, cAMP, HEK293 cells expressing human GLP-1 R, read-out: GLP1 R (EC50 in nM).
Setting [5] is: GIP R (EC50 in nM), Table 2b (most comprehensive data), average EC50, cAMP.

The structures appear in SMILES notation. Where two headings read alike, the source gives them in different places. Numbered stars: 1 amine (or outer) side, 2 acyl side, 3 side chain; on linkers, the order of the positions; unused ones are H or OH. Square brackets hold non-standard residues; d marks the D form. Side chains are listed from the residue outwards. Peptide text beside a SMILES is read from it. * marks the point of attachment. C18 diacid = O=C(O)CCCCCCCCCCCCCCCCC(=O)*; γGlu = O=C(O)[C@H](CCC(=O)[*:2])N[*:1]; AEEA = NCCOCCOCC(=O)O; Aib = CC(C)(N)C(=O)O

T3 sequence (P47871 26-477): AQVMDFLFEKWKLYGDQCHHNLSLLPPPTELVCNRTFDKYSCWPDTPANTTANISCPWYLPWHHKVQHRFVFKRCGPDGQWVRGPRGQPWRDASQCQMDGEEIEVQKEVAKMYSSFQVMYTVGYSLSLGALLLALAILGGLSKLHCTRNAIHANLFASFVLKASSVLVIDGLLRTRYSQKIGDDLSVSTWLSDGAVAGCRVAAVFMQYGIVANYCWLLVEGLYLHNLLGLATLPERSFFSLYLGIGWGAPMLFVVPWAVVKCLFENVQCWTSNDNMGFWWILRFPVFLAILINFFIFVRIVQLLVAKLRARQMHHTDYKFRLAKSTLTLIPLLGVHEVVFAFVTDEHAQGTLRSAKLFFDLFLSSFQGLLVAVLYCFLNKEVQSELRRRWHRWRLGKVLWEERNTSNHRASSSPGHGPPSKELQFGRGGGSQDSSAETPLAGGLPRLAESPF
Description for human GCG R: (§1) Briefly, HEK293 cells expressing the human GIP R, GLP-1 R or GCG R (stable cell lines generated through transfection of the cDNA for human GIP R, GLP-1 R or GCG R and selection of stable clones) were seeded at 30,000 cells/well in 96-well microtiter plates coated with 0.01% poly-L-lysine, and grown for 1 day in culture in 200 μl growth medium (DMEM, 10% FCS, Penicillin (100 IU/ml), Streptomycin (100 μg/ml)). On the day of analysis, growth medium was removed and the cells were washed once with 150 μl Tyrode's buffer (Tyrode's Salts (9.6 g/l), 10 mM HEPES, pH 7.4). […] The Assay buffer was removed and cells are lysed in 80 μl Lysis buffer (0.1% w/v BSA, 5 mM HEPES, 0.3% v/v Tween-20) per well. From each well 10 μl of lysed cells were transferred to a 384-well plate and mixed with 15 μl bead-mix (1 Unit/15 μl anti-cAMP Acceptor Beads, 1 Unit/15 μl Donor Beads, and 1 Unit/15 μl Biotinylated cAMP in Assay Buffer). The plates were mixed and incubated in the dark for an hour at room temperature before measuring using an Envision™ plate reader (Perkin-Elmer).
(§2) The resulting cAMP curves were plotted as absolute cAMP concentrations (nM) over log (test compound concentration) and analyzed using the curve fitting program XLfit.
(§3) Parameters calculated to describe both the potency as well as the agonistic activity of each test compound on the receptors were:
(§4) EC50, a concentration resulting in a half-maximal elevation of cAMP levels, reflecting the potency of the test compound.
Description for human GLP-1 R: as §1, §2, §3, §4

In the case of `CC(C)C[C@H](NC(=O)[C@H](C)NC(=O)[C@H](CCCCN)NC(=O)[C@H](CO)NC(=O)[C@H](Cc1ccc(O)cc1)NC(=O)[C@H](CC(=O)O)NC(=O)[C@H](CO)NC(=O)[C@@H](NC(=O)[C@H](Cc1ccccc1)NC(=O)[C@@H](NC(=O)CNC(=O)[C@H](CCC(N)=O)NC(=O)C(C)(C)NC(=O)[C@@H](N)Cc1ccc(O)cc1)[C@@H](C)O)[C@@H](C)O)C(=O)N[C@@H](CC(=O)O)C(=O)N[C@@H](CO)C(=O)N[C@@H](CCCCN)C(=O)N[C@@H](C)C(=O)N[C@@H](C)C(=O)N[C@@H](Cc1c[nH]cn1)C(=O)N[C@@H](CC(=O)O)C(=O)N[C@@H](Cc1ccccc1)C(=O)N[C@H](C(=O)N[C@@H](CCC(=O)O)C(=O)N[C@@H](Cc1c[nH]c2ccccc12)C(=O)N[C@@H](CC(C)C)C(=O)N[C@@H](CC(C)C)C(=O)N[C@@H](CO)C(=O)N[C@@H](C)C(N)=O)C(C)C` [Compound 7] (HELM PEPTIDE1{Y.[Aib].Q.G.T.F.T.S.D.Y.S.K.A.L.D.S.K.A.A.H.D.F.V.E.W.L.L.S.A.[am]}$$$$V2.0), the concentration for a half-maximal effect (EC50) (usually the concentration needed to bring the measured effect to its halfway point) on human GIP R (setting [1]) worked out at 0.42 nM; at human GLP-1 R (setting [2]) it was 0.031 nM; on human GCG R, 0.086 nM.
Regarding `CC[C@H](C)[C@H](NC(=O)[C@H](CO)NC(=O)[C@H](Cc1ccc(O)cc1)NC(=O)[C@H](CC(=O)O)NC(=O)[C@H](CO)NC(=O)[C@@H](NC(=O)[C@H](Cc1ccccc1)NC(=O)[C@@H](NC(=O)CNC(=O)[C@H](CCC(N)=O)NC(=O)C(C)(C)NC(=O)[C@@H](N)Cc1ccc(O)cc1)[C@@H](C)O)[C@@H](C)O)C(=O)N[C@@H](Cc1ccc(O)cc1)C(=O)N[C@@H](CC(C)C)C(=O)N[C@@H](CCC(=O)O)C(=O)N[C@@H](CCCCN)C(=O)N[C@@H](CCCCNC(=O)COCCOCCNC(=O)COCCOCCNC(=O)CC[C@H](NC(=O)CCCCCCCCCCCCCCCCC(=O)O)C(=O)O)C(=O)N[C@@H](C)C(=O)N[C@@H](C)C(=O)N[C@@H](CCCCN)C(=O)N[C@@H](CCC(=O)O)C(=O)N[C@@H](Cc1ccccc1)C(=O)N[C@H](C(=O)N[C@@H](CCC(=O)O)C(=O)N[C@@H](Cc1c[nH]c2ccccc12)C(=O)N[C@@H](CC(C)C)C(=O)N[C@@H](CC(C)C)C(=O)N[C@@H](CO)C(=O)N[C@@H](C)C(=O)NCC(=O)N1CCC[C@H]1C(=O)N[C@@H](CO)C(=O)N[C@@H](CO)C(=O)NCC(=O)N[C@@H](C)C(=O)N1CCC[C@H]1C(=O)N1CCC[C@H]1C(=O)N1CCC[C@H]1C(=O)N[C@@H](CO)C(N)=O)C(C)C` [Compound 38] (H-Y[Aib]QGTFTSDYSIYLEKK([AEEA-AEEA-γGlu-C18 diacid])AAKEFVEWLLSAGPSSGAPPPS-NH2), the EC50 at human GIP R (setting [3]) turned out to be 0.064 nM; on human GLP-1 R (setting [4]), 0.015 nM; on human GCG R (Table 2b (most comprehensive data), average EC50, cAMP, HEK293 cells expressing human GCG R, read-out: GCG R (EC50 in nM)) it was 0.27 nM.
Consider `CCCCCCCCCCCCCCCC(=O)N[C@@H](CCC(=O)NCCCC[C@H](NC(=O)[C@H](CO)NC(=O)[C@H](CC(=O)O)NC(=O)[C@H](CC(C)C)NC(=O)[C@H](Cc1ccc(O)cc1)NC(=O)[C@@H](NC(=O)[C@H](CO)NC(=O)[C@H](Cc1ccc(O)cc1)NC(=O)[C@H](CC(=O)O)NC(=O)[C@H](CO)NC(=O)[C@@H](NC(=O)[C@H](Cc1ccccc1)NC(=O)[C@@H](NC(=O)CNC(=O)[C@H](CCC(N)=O)NC(=O)C(C)(C)NC(=O)[C@@H](N)Cc1ccc(O)cc1)[C@@H](C)O)[C@@H](C)O)[C@@H](C)CC)C(=O)N[C@@H](C)C(=O)N[C@@H](C)C(=O)N[C@@H](Cc1c[nH]cn1)C(=O)N[C@@H](CC(=O)O)C(=O)N[C@@H](Cc1ccccc1)C(=O)N[C@H](C(=O)N[C@@H](CCC(=O)O)C(=O)N[C@@H](Cc1c[nH]c2ccccc12)C(=O)N[C@@H](CC(C)C)C(=O)N[C@@H](CC(C)C)C(=O)N[C@@H](CO)C(=O)N[C@@H](C)C(=O)NCC(=O)N1CCC[C@H]1C(=O)N[C@@H](CO)C(=O)N[C@@H](CO)C(=O)NCC(=O)N[C@@H](C)C(=O)N1CCC[C@H]1C(=O)N1CCC[C@H]1C(=O)N1CCC[C@H]1C(=O)N[C@@H](CO)C(N)=O)C(C)C)C(=O)O` [Compound 29] (HELM PEPTIDE1{Y.[Aib].Q.G.T.F.T.S.D.Y.S.I.Y.L.D.S.K.A.A.H.D.F.V.E.W.L.L.S.A.G.P.S.S.G.A.P.P.P.S.[am]}|PEPTIDE2{[CCCCCCCCCCCCCCCC(=O)[*:2]].[gGlu]}$PEPTIDE1,PEPTIDE2,17:R3-2:R2$$$V2.0), for which the EC50 at human GIP R (Table 2, average EC50, cAMP, read-out: GIP R (EC50 in nM)) amounted to 0.06 nM; on human GIP R (setting [3]), 0.05 nM; at human GLP-1 R, 0.05 nM; at human GLP-1 R (setting [4]), 0.15 nM; at human GCG R (Table 2, average EC50, cAMP, HEK293 cells expressing human GCG R, read-out: GCG R (EC50 in nM)), 0.15 nM.
Turning to `CC[C@H](C)[C@H](NC(=O)[C@H](CO)NC(=O)[C@H](Cc1ccc(O)cc1)NC(=O)[C@H](CC(=O)O)NC(=O)[C@H](CO)NC(=O)[C@@H](NC(=O)[C@H](Cc1ccccc1)NC(=O)[C@@H](NC(=O)CNC(=O)[C@H](CCC(N)=O)NC(=O)C(C)(C)NC(=O)[C@@H](N)Cc1ccc(O)cc1)[C@@H](C)O)[C@@H](C)O)C(=O)N[C@@H](Cc1ccc(O)cc1)C(=O)N[C@@H](CC(C)C)C(=O)N[C@@H](CC(=O)O)C(=O)N[C@@H](CO)C(=O)N[C@@H](CCCCN)C(=O)N[C@@H](C)C(=O)N[C@@H](C)C(=O)N[C@@H](Cc1c[nH]cn1)C(=O)N[C@@H](CC(=O)O)C(=O)N[C@@H](Cc1ccccc1)C(=O)N[C@H](C(=O)N[C@@H](CCC(=O)O)C(=O)N[C@@H](Cc1c[nH]c2ccccc12)C(=O)N[C@@H](CC(C)C)C(=O)N[C@@H](CC(C)C)C(=O)N[C@@H](CCCNC(=N)N)C(=O)N[C@@H](C)C(N)=O)C(C)C` [Compound 12] (HELM PEPTIDE1{Y.[Aib].Q.G.T.F.T.S.D.Y.S.I.Y.L.D.S.K.A.A.H.D.F.V.E.W.L.L.R.A.[am]}$$$$V2.0), the concentration for a half-maximal effect (EC50) at human GIP R (setting [1]) came out at 0.084 nM; at human GIP R (setting [5]), 0.012 nM; at human GLP-1 R (setting [2]) it was 0.012 nM; at human GCG R, 0.076 nM.
For the compound `CC[C@H](C)[C@H](NC(=O)[C@H](CO)NC(=O)[C@H](Cc1ccc(O)cc1)NC(=O)[C@H](CC(=O)O)NC(=O)[C@H](CO)NC(=O)[C@@H](NC(=O)[C@H](Cc1ccccc1)NC(=O)[C@@H](NC(=O)CNC(=O)[C@H](CCC(N)=O)NC(=O)C(C)(C)NC(=O)[C@@H](N)Cc1ccc(O)cc1)[C@@H](C)O)[C@@H](C)O)C(=O)N[C@@H](Cc1ccc(O)cc1)C(=O)N[C@@H](CC(C)C)C(=O)N[C@@H](CCC(=O)O)C(=O)N[C@@H](CCCCN)C(=O)N[C@@H](CCCCN)C(=O)N[C@@H](C)C(=O)N[C@@H](C)C(=O)N[C@@H](CCCCN)C(=O)N[C@@H](CCC(=O)O)C(=O)N[C@@H](Cc1ccccc1)C(=O)N[C@H](C(=O)N[C@@H](CCC(=O)O)C(=O)N[C@@H](Cc1c[nH]c2ccccc12)C(=O)N[C@@H](CC(C)C)C(=O)N[C@@H](CC(C)C)C(=O)N[C@@H](CO)C(=O)N[C@@H](C)C(N)=O)C(C)C` [Compound 20] (HELM PEPTIDE1{Y.[Aib].Q.G.T.F.T.S.D.Y.S.I.Y.L.E.K.K.A.A.K.E.F.V.E.W.L.L.S.A.[am]}$$$$V2.0), the concentration giving a half-maximal response (EC50) is 0.047 nM at human GIP R (setting [1]), 0.009 nM at human GIP R (setting [5]), 0.0094 nM at human GLP-1 R (setting [2]) and 0.057 nM on human GCG R.
With `CC[C@H](C)[C@H](NC(=O)[C@H](CO)NC(=O)[C@H](Cc1ccc(O)cc1)NC(=O)[C@H](CC(=O)O)NC(=O)[C@H](CO)NC(=O)[C@@H](NC(=O)[C@H](Cc1ccccc1)NC(=O)[C@@H](NC(=O)CNC(=O)[C@H](CCC(N)=O)NC(=O)C(C)(C)NC(=O)[C@@H](N)Cc1ccc(O)cc1)[C@@H](C)O)[C@@H](C)O)C(=O)N[C@@H](Cc1ccc(O)cc1)C(=O)N[C@@H](CC(C)C)C(=O)N[C@@H](CC(=O)O)C(=O)N[C@@H](CO)C(=O)N[C@@H](CCCCN)C(=O)N[C@@H](C)C(=O)N[C@@H](C)C(=O)N[C@@H](Cc1c[nH]cn1)C(=O)N[C@@H](CC(=O)O)C(=O)N[C@@H](Cc1ccccc1)C(=O)N[C@H](C(=O)N[C@@H](CC(N)=O)C(=O)N[C@@H](Cc1c[nH]c2ccccc12)C(=O)N[C@@H](CC(C)C)C(=O)N[C@@H](CC(C)C)C(=O)N[C@@H](CO)C(=O)N[C@@H](C)C(N)=O)C(C)C` [Compound 11] (HELM PEPTIDE1{Y.[Aib].Q.G.T.F.T.S.D.Y.S.I.Y.L.D.S.K.A.A.H.D.F.V.N.W.L.L.S.A.[am]}$$$$V2.0), the 50% effective concentration (EC50) on human GIP R (setting [1]) was determined as 0.28 nM; at human GLP-1 R (setting [2]), 0.02 nM; at human GLP-1 R (setting [4]) it was 0.11 nM; at human GCG R, 0.11 nM.
